According to patent US20140170208A1, “TRANSDERMAL PATCH FORMULATION” (LABTEC GMBH, priority 2009, published 2014):
Where two headings read alike, the source gives them in different places.

Columns and labels:
[1] = Description: 1.5 Further Solubility Experiments Using IPM and “Silicone Oil 1000”
1.7 Concentrating of Rasagiline in IPM
2.2 Solubility of Rasagiline in Polidocanol
Experiment 3.8: Rasagiline Solubility in a Plastoid Bneutral Oil Solution
• 50 mg rasagiline WE 8596 in 300 mg Plastoid B-solution from exp.

[2] = remark: listed apart in the source
Description: Rasagiline base (50 mg) was dissolved in the presented solvents (0.14 g) and the placed into an over at 70° C. to monitor its loss.

[3] = remark: listed apart in the source
From the text: Pilot Test Regarding the Solubility of Rasagiline Base in Non-Volatile Solvents for Use in a TDS
1.1 Solubility of Rasagiline Base

[4] = ca. 20-25 mg in 0.5 g or mL, ca. 1:20 mixture
[5] = ca. 20-25 mg in 1.0 g or mL, ca. 1:40 mixture

- Rasagiline solubility in a Plastoid B neutral oil solution [1]: dissolved
- Solubility in silicone oil 1000 [1]: 25-30 mg/g silicone oil 1000
- Solubility of rasagiline in polidocanol [1]: completely soluble
- Loss of rasagiline substance after removal of solvent by drying (FIG. 3) ([2]; 50 mg in 0.14 g pure water, oven at 70° C.): significant sublimation
- Sublimation of rasagiline base at 60-70° C. ([2]; melted in beaker glass at 60-70° C., covered with ice-cold watch glass): re-sublimates
- Solubility of rasagiline base in Cremophor EL [3, 4]: Nearly completely
- Solubility of rasagiline base in Glycerol anhydrous [3, 4]: Not Solubilised
- Solubility of rasagiline base in Isopropyl myristate (IPM) [3, 4]: Solubilised
- Solubility of rasagiline base in PEG 400 [3, 4]: Solubilised
- Solubility of rasagiline base in Polysorbat 80 [3, 4]: Solubilised
- Solubility of rasagiline base in Propylenglycol [3, 4]: Solubilised
- Solubility of rasagiline base in Silicone oil 1000 [3, 4]: Not Solubilised
- Solubility of rasagiline base in Vitamin-E-acetate [3, 4]: Nearly completely
- Solubility of rasagiline base in paraffine, viscous [3, 4]: Not Solubilised
- Solubility of rasagiline base in Cremophor EL [3, 5]: Solubilised
- Solubility of rasagiline base in Glycerol anhydrous [3, 5]: Not completely solubilised,
- Solubility of rasagiline base in Isopropyl myristate (IPM) [3, 5]: Solubilised
- Solubility of rasagiline base in PEG 400 [3, 5]: Solubilised
- Solubility of rasagiline base in Polysorbat 80 [3, 5]: Solubilised
- Solubility of rasagiline base in Propylenglycol [3, 5]: Solubilised
- Solubility of rasagiline base in Silicone oil 1000 [3, 5]: Solubilised
- Solubility of rasagiline base in Vitamin-E-acetate [3, 5]: Solubilised
- Solubility of rasagiline base in paraffine, viscous [3, 5]: Solubilised
Structure (SMILES): C#CCN[C@@H]1CCc2ccccc21 [rasagiline base, rasagiline]
